Data taken from the supplement of paper PMC10307832.

How the values were obtained:
Experiment in all cases: relative viability (nuclei count vs DMSO), 5 days (fraction); higher = more cells survive
[1] = compound: CO[C@@H]1[C@H](N(C)C(=O)c2ccccc2)C[C@H]2O[C@]1(C)n1c3ccccc3c3c4c(c5c6ccccc6n2c5c31)C(=O)NC4 [Midostaurin] + CC1(C)CCC(c2ccc(Cl)cc2)=C(CN2CCN(c3ccc(C(=O)NS(=O)(=O)c4ccc(N[C@H](CCN5CCOCC5)CSc5ccccc5)c(S(=O)(=O)C(F)(F)F)c4)cc3)CC2)C1 [Navitoclax] (partner 0.5 µM)
Outline: (§1)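 Relative viability is defined as nuclei in treated wells over nuclei in vehicle wells. Duplicate plates were run and medians reported. Lung cancer cell lines in 1536-well plates were dosed by pin tool one day after seeding, with one drug or with a fixed anchor-drug dose plus five library-drug doses (not always all listed) in √10 steps, and nuclei were counted after 5 days.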

[2] = compound: CO[C@@H]1[C@H](N(C)C(=O)c2ccccc2)C[C@H]2O[C@]1(C)n1c3ccccc3c3c4c(c5c6ccccc6n2c5c31)C(=O)NC4 [Midostaurin] + CC(=O)c1c(C)c2cnc(Nc3ccc(N4CCNCC4)cn3)nc2n(C2CCCC2)c1=O [Palbociclib] (partner 0.5 µM)
Outline: as §1

[3] = compound: COc1cc(-c2nn([C@H]3CC[C@H](N4CCN(C(C)=O)CC4)CC3)c3ncnc(N)c23)ccc1NC(=O)c1cc2ccccc2n1C + C[C@@H](Oc1cc(-c2cnn(C3CCNCC3)c2)cnc1N)c1c(Cl)ccc(F)c1Cl [Crizotinib] (partner 1 µM)
Outline: as §1

[4] = compound: COc1cc(-c2nn([C@H]3CC[C@H](N4CCN(C(C)=O)CC4)CC3)c3ncnc(N)c23)ccc1NC(=O)c1cc2ccccc2n1C + C[C@]1(O)C[C@@H](c2nc(-c3ccc4ccc(-c5ccccc5)nc4c3)c3c(N)nccn32)C1 [Linsitinib] (partner 1 µM)
Outline: as §1

[5] = compound: COc1cc(-c2nn([C@H]3CC[C@H](N4CCN(C(C)=O)CC4)CC3)c3ncnc(N)c23)ccc1NC(=O)c1cc2ccccc2n1C + CCNC(=O)c1noc(-c2cc(C(C)C)c(O)cc2O)c1-c1ccc(CN2CCOCC2)cc1 [Luminespib] (partner 0.01 µM)
Outline: as §1

Cell Line	relative viability ([1]; first compound 0.01 µM)	relative viability ([1]; first compound 0.03162 µM)	relative viability ([1]; first compound 0.1 µM)	relative viability ([1]; first compound 0.3162 µM)	relative viability ([2]; first compound 0.01 µM)	relative viability ([2]; first compound 0.03162 µM)	relative viability ([2]; first compound 0.1 µM)	relative viability ([2]; first compound 0.3162 µM)	relative viability ([3]; first compound 0.0128 µM)	relative viability ([3]; first compound 0.04048 µM)	relative viability ([3]; first compound 0.128 µM)	relative viability ([3]; first compound 1.28 µM)	relative viability ([4]; first compound 0.0128 µM)	relative viability ([4]; first compound 0.04048 µM)	relative viability ([4]; first compound 0.128 µM)	relative viability ([4]; first compound 1.28 µM)	relative viability ([5]; first compound 0.0128 µM)	relative viability ([5]; first compound 0.04048 µM)	relative viability ([5]; first compound 0.128 µM)	relative viability ([5]; first compound 1.28 µM)
HCC-44	0.949	0.982	0.831	0.96	1.01	1.02	0.942	0.99	0.931	0.825	0.847	1.06	0.764	0.687	0.692	0.536	1.21	1.27	1.04	1.01
HCC-78	0.835	0.638	0.815	0.341	0.536	0.474	0.474	0.469	0.338	0.432	0.325	0.18	0.573	0.643	0.513	0.436				
HCC-366	1.07	1.16	1	1.06	0.364	0.409	0.389	0.384	0.692	0.679	0.546	0.281	0.531	0.513	0.531	0.257				
HCC-827	1.03	0.987	0.958	1.1	0.423	0.521	0.503	0.506	0.903	0.963	0.94	0.685	0.957	1.02	0.958	0.995	0.633	0.66	0.816	0.203
IA-LM	0.81		0.701	0.631					1.02	1.07	0.903	1.1	0.606	0.299	0.698	0.815				
LCLC-103H					0.449	0.484	0.512	0.542	1.17	1.22	0.993	1.07	1.12	1.21	0.957	1.01	0.985	1.18	0.879	0.835
NCI-H358					0.123	0.134	0.114	0.136	0.563	0.619	0.586	0.368	0.664	0.73	0.681	0.462	0.452	0.251	0.395	0.296
NCI-H522					1.01	0.876	0.967	1.32									1.25	1.21	1.3	0.971
NCI-H596	1.09	1.02	0.978	1.07					0.943	1.2	1.01	0.64	1.1	1.3	1.12	0.748	1.06	1.2	0.893	0.583
NCI-H650					0.347	0.34	0.318	0.313	0.665	0.716	0.603	0.739	0.854	1.26	0.894	0.64	0.731	0.861	0.941	0.754
NCI-H661					0.399	0.41	0.438	0.469	1.09	1.03	1.07	1.1	0.618	0.507	0.448	0.357	0.901	1.08	0.948	0.946
NCI-H1299	1.07	0.989	1.01	1.01					0.966	1.07	0.987	1.13	1.01	0.871	0.999	0.655				
NCI-H1395	1.11	1.09	1.17	1.25	0.626	0.753	0.639	0.703					0.965	1.21	0.916	0.768	0.631	0.651	0.646	0.398
NCI-H1563									0.625	0.805	0.926	0.729	1.24	1.12	1.31	0.903	0.535	0.55	0.525	0.5
NCI-H1623																	0.473	0.514	0.451	0.433
NCI-H1648					0.35			0.285												
NCI-H1650	1.29	1.03	1.08	0.846	0.297	0.409	0.343	0.522	0.898	1.07	0.957	0.638					0.162	0.194	0.19	0.181
NCI-H1703	1.21	0.974	0.75	0.312					0.585	0.73	0.496	0.206	0.984	0.193	0.637	0.323				
NCI-H1793	0.417	0.533	0.513	0.493	0.305	0.349	0.354	0.342					0.99	0.979	0.712	0.545	0.166	0.186	0.168	0.156
NCI-H2170	0.609	0.673	0.549	0.569	0.394	0.397	0.406	0.454	1.3	1.13	1.2	0.923					0.663	0.79	0.669	0.373
NCI-H2342					0.477	0.538	0.491	0.547									0.723	0.717	0.87	0.61
SW 900					0.574	0.587	0.545	0.639									0.178	0.175	0.184	0.159
